Measured values published in patent publication US5639906A, “Fluorescent and NMR sensitive pH indicators” (The United States of America as represented by the …, priority 1994, dated 1997).
Entries after “also recorded” stand apart in the source; their conditions may differ.

Key:
[1] = 19F NMR pH titration of fluorinated indicators; format: physicochemical; conditions: for pK (theoretical titration curve, FIG. 2): 19F shift as a function of pH; for δ1 (limiting 19F shift difference of theoretical curve, FIG. 2) / δ2 (limiting 19F shift difference of theoretical curve, FIG. 2): shift difference between the two fluorine resonances
Excerpt: The sample also contained Sodium Flouride as an internal chemical shift standard.
The shift for 5F NEAP-1 is referenced to the tetrafluorophthalate ^19 F resonance, while the data for 5F NEAP-2 and 5F NEAP-3 correspond to the shift differences between the two fluorine resonances. The theoretical curves correspond to: δ1 =35.6 ppm, δ2 24.7 ppm, pK=6.85 for 5F NEAP-1; δ1 =10.3 ppm, δ2 =-0.8 ppm, pK=6.6 for 5F NEAP-2; and δ1 =24.1, δ2 =13.4, pK=6.8 for 5F NEAP-3.
The magnitude of this shift, however, is insignificant in comparison to the 11 ppm titration shift of the indicator. In any event, the magnitude of this shift may be determined and corrected. In alternate embodiments, for an indicator such as NEAP-3 which contain a second fluorine to serve as a chemical shift reference both fluorines will experience a similar intracellular shift, making correction unnecessary. There is also exchange broadening of the resonance, which becomes more significant at higher magnetic field strengths. In general, the degree of broadening depends on the dissociation rate constant of the proton from the indicator. This rate is dependent on the particular indicator, on the temperature, and on the composition of the solution in which the indicator is placed. […] If the exchange is sufficiently rapid on the NMR time scale, i.e., the dissociation rate constant of the protonated indicator k-1 >>πΔv/√ 2, where Δv is the chemical shift difference of the resonance under study between the protonated and unprotonated forms of the indicator, then the observed chemical shift can be used to determine the intracellular pH according to the relation: [formula] where pK is the pK of the indicator, δo is the observed chemical shift, and δU and δP are the shifts of the unprotonated and fully protonated forms of the indicator, respectively. Although the above equation is expected to be generally adequate, at very high fields and low temperatures, the exchange might become slow enough to require a correction, as described, for example, in London, J. Magn. Reson. Series A 104, 190-196 (1993).

human erythrocytes [2] = test: pH measurement in human erythrocytes using 19F-NMR; format: cell-based
Method: (§1) FIGS. 3A and 3B show the ^19 F NMR spectra of human erythrocytes loaded with 5F NEAP-1 acetoxymethyl ester suspended in a solution containing 120 mM sodium chloride (NaCl) and 20 mM tris-[N-(2-hydroxyethyl)piperazine-N'-(2-ethanesulfonic acid)] ("tris-HEPES"). Tetrafluorophthalate ("TFPH") is also included as a chemical shift standard. […] The resonance associated with intracellular NEAP is denoted as "INTRA"; the resonance associated with extracellular NEAP is denoted as "EXTRA".
According to the present invention, intracellular pH can be determined using ^19 F NMR spectroscopy of cells containing a compound of Formula I or II. Measurements have been carried out on several physiological systems of interest, including, for example, human erythrocytes and perfused rat heart. The ^19 F NMR shifts of 5F NEAP-1, 5F NEAP-2, or 5F NEAP-3 provide information which is directly interpretable in terms of the cytosolic pH. These measurements can be made using any standard pulsed NMR spectrometer equipped with a fluorine NMR probe. Typically, at least 100 transients are required for the measurements.
III. pH Measurement in Human Erythrocytes Using ^19 F-NMR
(§2) As an illustration of the use of the current invention, the fluorinated indicator 5F NEAP-1 is used to determine the intra- and extracellular pH in a suspension of human erythrocytes. […] Based on the chemical shift difference between the NEAP fluorine resonance and the standard, an intracellular pH value of 7.3 for this preparation is determined. Subsequently, some additional 5F NEAP-1 was added as the free acid. […] It is interesting to note that the extracellular resonance is somewhat broader than the intracellular resonance. […] An extracellular pH value of 7.0 is determined from the shift (this situation is somewhat unusual since in more typical physiological preparations the intracellular pH is lower than the extracellular pH). As noted in the above sections, small errors which result from the intracellular shift displacement of 0.1-0.3 ppm, can be, but have not been accounted for. […]

human erythrocytes [3] = test: Membrane crossing of extracellular indicator in human erythrocyte suspension (19F NMR); format: in vitro ADME; conditions: free acid added extracellularly
Method: as §1, §2

[4] = referenced to the tetrafluorophthalate 19F resonance

Structure (SMILES) | downfield 19F shift of the para-fluorine upon protonation of the nitrogen (titration shift) [1] | pK (theoretical titration curve, FIG. 2) [1] | pK ([1]; as stated in summary) | δ1 (limiting 19F shift of theoretical curve, FIG. 2) [1, 4] [ppm] | δ2 (limiting 19F shift of theoretical curve, FIG. 2) [1, 4] [ppm] | extracellular pH determined with indicator (human erythrocytes [2]; free acid added to suspension, TFPH standard) | difference between intra- and extracellular pH giving well resolved NMR resonances (human erythrocytes [2]; intracellular vs extracellular resonance) [pH unit] | intracellular pH determined with indicator (human erythrocytes [2]; loaded 1 hour with acetoxymethyl ester, 120 mM NaCl, 20 mM tris-HEPES, TFPH standard) | crossing of the cell membrane (human erythrocytes [3]) | δ1 (limiting 19F shift difference of theoretical curve, FIG. 2) [1] [ppm] | δ2 (limiting 19F shift difference of theoretical curve, FIG. 2) [1] [ppm] | pH sensitivity of the fluorine resonances ([1]; FIG. 1) | δ1 (limiting 19F shift difference of theoretical curve, FIG. 2) ([1]; unit not given) | δ2 (limiting 19F shift difference of theoretical curve, FIG. 2) ([1]; unit not given)
CCN(CC(=O)O)c1ccc(F)cc1OCC(=O)O [5F NEAP-1, N-ethyl-2-amino-5-fluorophenol-N,O-diacetic acid] | about 11 ppm | 6.85 | 6.8 | 35.6 | 24.7 | 7.0 | 0.3 | 7.3 | will not readily cross the cell membrane; also recorded: does not cross the cellular membrane in appreciable amounts | – | – | – | – | –
CCN(CC(=O)O)c1ccc(F)cc1OCc1ccc(C(=O)O)cc1F [5F NEAP-2, N-Ethyl-2-(2-fluoro-4-carboxybenzyloxy)-4-fluoroaniline-N-acetic acid] | – | 6.6 | – | – | – | – | – | – | – | 10.3 | -0.8 | – | – | –
CCN(CC(=O)O)c1ccc(F)cc1OCCOc1ccc(N(CC(=O)O)CC(=O)O)cc1F [5F NEAP-3, 1-(N-Ethylamino-5-fluorophenoxy)-2-(2-fluoro-4-aminophenoxy)ethane, N,N',N'-triacetic acid] | – | 6.8 | – | – | – | – | – | – | – | – | – | one of the fluorine resonances is pH sensitive, and the second is almost completely pH insensitive | 24.1 | 13.4
